Here are results for three substances from publication PMC2267209, “Transepithelial Transport and Enzymatic Detoxification of Gluten in Gluten-Sensitive Rhesus Macaques” (PLoS ONE, 2008).

The subject of data set [1] is gluten-sensitive rhesus macaque FH45. Description: Indirect ELISA for plasma AGA and anti-TG2 antibodies during gluten challenge with EP-B2. Format: in vivo, rhesus macaques (Macaca mulatta). The text has this:
Gluten-sensitive FH45 and control FI96 were switched from a gluten-containing to a gluten-free diet at week 0, re-challenged with the gluten-containing diet from week 10.4 to 11.4, and then returned to a gluten-free diet for the remainder of the experiment. To test whether orally administered EP-B2 can prevent clinical symptoms resulting from gluten challenge, animals were fed a gluten-free diet with the addition of a daily slice of unbleached wheat bread (∼4 g gluten) for 8 weeks (weeks 22.9 to 30.9), during the first 4 of which (weeks 22.9 to 26.9) gluten-sensitive macaque FH45 received a daily dose of 2 g recombinant proEP-B2 dissolved in an electrolyte drink immediately prior to bread consumption. Recombinant proEP-B2 was expressed and purified as previously described, [31]. Peripheral blood samples (1 ml) were collected every 1–2 weeks from a femoral vein, and plasma was harvested and stored at −80 °C until analyzed for AGA and anti-TG2 antibodies. Clinical health was monitored as previously described. Briefly, daily clinical scores were averaged over weekly intervals to obtain each weekly mean±standard deviation. Criteria for clinical scoring (1–6 scale) were scaled relative to “clinically normal”, age-matched controls, i.e. score of 1. Score 2 corresponded to beginning of diarrhea, i.e. pasty stools. Score 3 corresponded to semi-liquid stools and decreased activity. Score 4 corresponded to liquid stools, decreased activity, moderate dehydration and “balloon” stomach. Score 5 corresponded to liquid stools, depression, severe dehydration and balloon stomach. Score 6 corresponded to a moribund animal where prompt euthanasia is recommended.
ELISA assays were performed as previously described.

Data set [2] shares this test system. Description: Daily gluten challenge with or without oral EP-B2, clinical score. Format: in vivo, rhesus macaques (Macaca mulatta). An excerpt: Gluten-sensitive FH45 and control FI96 were switched from a gluten-containing to a gluten-free diet at week 0, re-challenged with the gluten-containing diet from week 10.4 to 11.4, and then returned to a gluten-free diet for the remainder of the experiment. To test whether orally administered EP-B2 can prevent clinical symptoms resulting from gluten challenge, animals were fed a gluten-free diet with the addition of a daily slice of unbleached wheat bread (∼4 g gluten) for 8 weeks (weeks 22.9 to 30.9), during the first 4 of which (weeks 22.9 to 26.9) gluten-sensitive macaque FH45 received a daily dose of 2 g recombinant proEP-B2 dissolved in an electrolyte drink immediately prior to bread consumption. Recombinant proEP-B2 was expressed and purified as previously described, [31]. Peripheral blood samples (1 ml) were collected every 1–2 weeks from a femoral vein, and plasma was harvested and stored at −80 °C until analyzed for AGA and anti-TG2 antibodies. Clinical health was monitored as previously described. Briefly, daily clinical scores were averaged over weekly intervals to obtain each weekly mean±standard deviation. Criteria for clinical scoring (1–6 scale) were scaled relative to “clinically normal”, age-matched controls, i.e. score of 1. Score 2 corresponded to beginning of diarrhea, i.e. pasty stools. Score 3 corresponded to semi-liquid stools and decreased activity. […]

The test system of data set [3] is celiac patient-derived T cells. The following applies: ref [2], [19], cited from earlier work.
The conditions of data set [4]: rhesus monkey, in vivo.
Procedure: A 0.5 ml sample of EDTA-blood was collected from an ear vein at 0, 30, 60, 120, and 180 min following the 33-mer inoculation. […] Animals were fasted at least 2 h prior to peptide inoculations. Blood collections and 33-mer inoculations were performed with sedated and anesthetized animals.
Following peptide dosing and peripheral plasma collection, described above, plasma proteins were precipitated by addition of acetonitrile. Plasma was mixed with an equal volume of cold acetonitrile+0.1% formic acid, vortexed, incubated for 2 h at 4°C, and centrifuged at 14,000•g for 10 min at 4°C. […] When quantitation was performed, unlabeled 33-mer was spiked into the plasma samples prior to acetonitrile precipitation as an internal control (5 pmol/100 µl injection) and injections were performed at least in triplicate.
Mass spectrometry analysis was performed as previously described [20] with the following modifications. […] For ^D933-mer, the transitions monitored were m/z 981.0^4+→263.1^+ (30V cone voltage, 27eV collision energy.) for the quantitation assay and m/z 1307.7^3+→263.1^+ (40V cone voltage, 50eV collision energy) as a confirmatory transition. […] Levels of ^D933-mer in each sample were determined by comparison of the area under the ^D933-mer transition peak to the area under the internal standard transition peak. […]
The mark [5] stands for this setting: daily 2 g proEP-B2 plus wheat bread.

Turning to “EP-B2: gluten-specific barley cysteine endoprotease, dosed orally as recombinant proenzyme; oral glutenase drug candidate for celiac disease”, the “Anti-TG2 IgA” value in data set [1] (EP-B2 treatment with gluten challenge) was “unable to detect”. Also, in data set [1] (setting [5]), the “AGA levels during wheat bread/EP-B2 administration relative to gluten-containing diet (week 0)” value is on record as about 3 fold and the “Anti-TG2 IgG levels over the course of EP-B2 treatment” value is reported as “elevated”. In addition, in data set [2] (daily 2 g recombinant proEP-B2 oral immediately before a daily slice of wheat bread (∼4 g gluten), first 4 weeks (weeks 22.9 to 26.9), clinical score 1–6 scale), the “Clinical health during gluten challenge with EP-B2” value is on record as “remained clinically healthy”. Further, the “Time to signs of clinical illness after EP-B2 dosing was concluded” value in data set [2] (wheat bread gluten challenge continued without EP-B2 (weeks 26.9 to 30.9)) was about 1 week.
On to “LQLQPFPQPQLPYPQPQLPYPQPQLPYPQPQPF [33-mer, immunotoxic 33-mer gluten peptide derived from gastrointestinal proteolysis of α2-gliadin; unlabeled form used as internal standard]”, for which the “Concentration sufficient to stimulate proliferation of celiac patient-derived T cells” value in data set [3] (T cells in culture) is “low nanomolar concentrations”. The “Proliferation of celiac patient-derived T cell lines” value in data set [3] (all T cell lines tested so far) is on record as “activates proliferation in all celiac patient-derived T cell lines tested so far”.
On to “LQLQPFPQPQLPYPQPQLPYPQPQLPYPQPQPF [^D933-mer]”, for which the “Detection of peptide in peripheral plasma at 60 minutes” value in data set [4] is “detected”. In addition, the “Concentration in peripheral plasma at 60 minutes” value in data set [4] (SD) worked out at 7.0 ± 0.4 nM.
